# Test results taken from patent US10350204B2, “Methods for treating cognitive deficits associated with fragile X syndrome” (Wisconsin Alumni Research Foundation, priority 2015, dated 2019).
# Columns and labels:
# Open field activity test = format: in vivo, mouse; conditions: wildtype and Fmr1 KO mice; Nutlin-3 10 mg/kg, 5 injections
# Procedure: (§1) All animal procedures were performed according to protocols approved by the University of Wisconsin-Madison Care and Use Committee. All mice were on C57B/L6 genetic background. The Fmr1 KO/Nestin-GFP mice (Fmr1−/y::Nestin-GFP) were created by crossing female Fmr1 heterozygous KO mice (Fmr1+/−) (59) with homozygous Nestin-GFP transgenic males (60). Generation of FMRP inducible conditional mutant mice (Fmr1loxP/y::Nestin-CreERT2::Rosa26-tdt) and tamoxifen injections to induce recombination were performed as described (12). To induce recombination, mice (6-weeks old) received Tamoxifen (Sigma-Aldrich) daily for 5 d (160 mg/kg) as described (12). Nutlin-3 (10 mg/kg) was given to 7-8 week-old mice or 20-week old mice through IP injections every other day for 5 injections and sacrificed at either 24 hours, 4 weeks, 12, or 20 weeks after the last injection. For NSC differentiation analysis, mice also received four BrdU injections (100 mg/kg) between day 2 and 3 of Nutlin-3 injections. […]
# Mice were subjected to open field testing for evaluation of locomotor activity and general anxiety. Activity was recorded at 10-min intervals for total 30 min by means of a computer-operated tracking system (Omnitech Electronics Inc, USA) Total distance moved, and ratio of entry time into the Centre and periphery of arena were measured.
# Fmr1 KO mice = assay: Novel location test (NLT); format: in vivo, mouse; conditions: for spatial memory deficits in the novel location test, long-term effect: tested at 24 weeks old
# Procedure: (§2) All animal procedures were performed according to protocols approved by the University of Wisconsin-Madison Care and Use Committee. All mice were on C57B/L6 genetic background. The Fmr1 KO/Nestin-GFP mice (Fmr1−/y::Nestin-GFP) were created by crossing female Fmr1 heterozygous KO mice (Fmr1+/−) (59) with homozygous Nestin-GFP transgenic males (60). Generation of FMRP inducible conditional mutant mice (Fmr1loxP/y::Nestin-CreERT2::Rosa26-tdt) and tamoxifen injections to induce recombination were performed as described (12). To induce recombination, mice (6-weeks old) received Tamoxifen (Sigma-Aldrich) daily for 5 d (160 mg/kg) as described (12). Nutlin-3 (10 mg/kg) was given to 7-8 week-old mice or 20-week old mice through IP injections every other day for 5 injections and sacrificed at either 24 hours, 4 weeks, 12, or 20 weeks after the last injection. For NSC differentiation analysis, mice also received four BrdU injections (100 mg/kg) between day 2 and 3 of Nutlin-3 injections. To induce recombination in FMRP inducible conditional mutant mice (Fmr1^loxP/y::Nestin-CreER^T2::Rosa26-tdt) mice, mice 6-weeks old male mice received Tamoxifen (Sigma-Aldrich) daily for 5 days (160 mg kg-1 i.p., 30 mg ml^−1 in 10% ethanol mixed with sunflower oil, SigmaAldrich) based on a published procedure (13). BrdU (Sigma-Aldrich, B5002) was made in a concentration of 20 mg/mL in PBS. Nutlin-3 (Nt3, Cayman Chemical, 10004372) was made in a concentration of 100 mg/mL in dimethyl sulfoxide (DMSO).
# This test measures spatial memory through an evaluation of the ability of mice to recognize the new location of a familiar object with respect to spatial cues. The experimental procedure was performed as previously described (65). The mice were exposed to 2 identical objects for 6 minutes during the acquisition phase 3 times and tested at 3 minutes later. Object preference was evaluated during this session. During the trial session, one of the objects was moved to a novel location, and the mice were allowed to explore the objects for 6 minutes, and the total time spent exploring each object was measured. Exploration was considered as any investigative behavior (i.e., head orientation, sniffing occurring within <1.0 cm) or deliberate contact occurring with each object. The discrimination index was calculated as the percentage of time spent investigating the object in the new location minus the percentage of time spent investigating the object in the old location: discrimination index=(Novel Location exploration time/total exploration time×100)−(old Location exploration time/total exploration time×100). All experiments were videotaped and scored by scientists who were blinded to experimental conditions.
# [1] = Overall health and body weight of treated mice; format: in vivo, mouse; conditions: wildtype and Fmr1 KO mice; Nutlin-3 10 mg/kg, 5 injections
# Procedure: as §2, with “Nutlin-3 (Nt3, Cayman Chemical, 10004372) was made in a concentration of 100 mg/mL in dimethyl sulfoxide (DMSO).” left out
# [2] = system: Fmr1 KO and wildtype NPCs; assay: Cell death analysis (PI/Hoechst, CellTiter-Glo viability) of NPCs; format: cell-based, mouse; conditions: 2 μM Nutlin-3
# From the text: Three different methods were used to assay cell death. Fluorescein isothiocyanate and propidium iodide (Annexin V-FITC Apoptosis Detection Kit, Sigma, #APOAF) were used to assess NSC apoptosis. Intact cells were Annexin V^−PI^−. Early and late apoptotic cells were Annexin V^+PI^− and Annexin V^+PI^+, respectively. Necrotic cells were Annexin V−PI+. The number of early apoptotic cells (Annexin V^+PI^−; Phase II) and late apoptotic cells (Annexin V^+PI^+, Phase I) were used to calculate the percentage of apoptotic cells. In a second method, propidium iodide (1 mg/mL) and […] (1 mM) were added to cultured cells for 15 min, followed by high content imaging analysis (Oppretta, GE) to quantify the percentage of Hoechst positive (all) cells that are PI positive (dead) cells. In the third method, Cell viability was measured using CellTiter-Glo Luminescent Cell Viability Assay (Promega). 2 μM Nutlin-3 (Nt3, Selleckchem, 51061) was added to proliferating aNPCs at 6 hours post-plating. Cells were then harvested 24 hours later with CellTiter-Glo buffer at room temperature. Signal intensity was immediately measured using a Glomax plate reader (Promega) according to manufacturer's instruction.
# [3] = system: NSCs of Fmr1 KO and wildtype mice; assay: In vivo NSC activation in the adult dentate gyrus (GFP+GFAP+MCM2+); parameters: species or system mouse; conditions: 10 mg/kg every other day, 5 injections over 9 days
# Procedure: as §1, with “injection.” for “injection. For NSC differentiation analysis, mice also received four BrdU injections (100 mg/kg) between day 2 and 3 of Nutlin-3 injections.”
# The total numbers of GFP^+ or tdT^+ cells in the dentate gyms of each animal were counted on a Zeiss Apotome microscope using unbiased stereology (StereoInvestigator software, MBF Biosciences, Inc). […] Dentate gyms volume was measured using StereoInvestigator as described (11, 12). […] Briefly, at least 50 GFP^+ or BrdU^+ cells in the dentate gyms were randomly selected, and their colocalization with cell-lineage markers was determined using a Nikon A1 confocal microscope and quantified using ImageJ software (NIH).
smiles,measurement,setting,value
COc1ccc(C2=N[C@@H](c3ccc(Cl)cc3)[C@@H](c3ccc(Cl)cc3)N2C(=O)N2CCNC(=O)C2)c(OC(C)C)c1 [Nutlin-3],"locomotor activity and anxiety (total distance, center/periphery entry ratio)",Open field activity test,no significant effect
same,"spatial memory deficits in the novel location test, long-term effect",Fmr1 KO mice; Fmr1 KO mice treated at 8 weeks old,long-term effects to fully rescue spatial memory deficits
same,spatial memory deficits in the novel location test,"Fmr1 KO mice; Fmr1 KO mice treated at 20 weeks old (middle aged), 24-weeks-old at test",fully rescued spatial memory deficits
same,performance on the novel location test (discrimination index),"Fmr1 KO mice; Fmr1 KO mice, treated as young adults, tested 4 weeks later",rescued performance
same,"spatial memory deficits in the novel location test, long-term effect",Fmr1 KO mice; Fmr1 conditional KO mice treated at 8 weeks old,long-term effects to fully rescue spatial memory deficits
same,performance on the novel location test (discrimination index),"Fmr1 KO mice; wildtype mice, tested 4 weeks after treatment",no significant effect on wildtype mice
same,overall health and body weight,[1],no significant effect on overall health and body weight
same,cell death and survival,[2]; Fmr1 KO NPCs,did not exhibit significant effects on cell death and survival
same,cell death and survival,[2]; wildtype NPCs,did not exhibit significant effects on cell death and survival
same,NSC activation (percentage of activated NSCs among total NSCs),[3]; Fmr1 KO mice,specifically reduced NSC activation in Fmr1 KO mice to wildtype levels
same,NSC activation (percentage of activated NSCs among total NSCs),[3]; wildtype mice,no significant effect on wildtype mice
